In paper PMC8119466, “A screen of FDA-approved drugs identifies inhibitors of protein tyrosine phosphatase 4A3 (PTP4A3 or PRL-3)” (Scientific Reports, 2021):
Counter-ions that a name gives are not always drawn. Like-named read-outs stand apart in the source and are kept apart here.

Tests used:
Type in all cases: biochemical
recombinant PRL-3 = molecular target: T1, recombinant PRL-3 (Homo sapiens, UniProt O75365); assay: In vitro phosphatase assay (DiFMUP hydrolysis), PRL-3; further: test concentration or dose not given here
T1 construct: 6xHis (N, cleaved yes); made in house; host or cells: E. coli One Shot BL21 Star

recombinant PRL-2 = molecular target: T2, recombinant PRL-2 (Homo sapiens, UniProt Q12974); assay: In vitro phosphatase assay (DiFMUP hydrolysis), PRL-2;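 further: PRL-2 activity read as DiFMUP hydrolysis after 20 min at room temperature with drug, enzyme first pre-reduced at 4 °C for 20 min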
T2 construct: 6xHis (N, cleaved yes); made in house; host or cells: E. coli One Shot BL21 Star
T2 sequence (Q12974 1-167): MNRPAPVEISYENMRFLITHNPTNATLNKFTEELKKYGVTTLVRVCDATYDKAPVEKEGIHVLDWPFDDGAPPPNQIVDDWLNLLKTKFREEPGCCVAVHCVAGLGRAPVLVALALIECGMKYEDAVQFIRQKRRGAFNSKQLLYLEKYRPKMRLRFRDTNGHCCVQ

recombinant PRL-1 = molecular target: T3, recombinant PRL-1 (Homo sapiens, UniProt Q93096); assay: In vitro phosphatase assay (DiFMUP hydrolysis), PRL-1; further: test concentration or dose not given here
T3 construct: 6xHis (N, cleaved yes); made in house; host or cells: E. coli One Shot BL21 Star
T3 sequence (Q93096 1-173): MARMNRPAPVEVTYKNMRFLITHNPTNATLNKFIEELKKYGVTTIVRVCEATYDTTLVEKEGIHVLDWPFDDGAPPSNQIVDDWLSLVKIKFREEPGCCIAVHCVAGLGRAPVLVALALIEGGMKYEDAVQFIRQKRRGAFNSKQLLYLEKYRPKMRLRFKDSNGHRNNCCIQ

[1] = FDA-approved drug screen, activity compared to DMSO
[2] = FDA-approved drug screen, compared to DMSO

T1 sequence (O75365 whole entry): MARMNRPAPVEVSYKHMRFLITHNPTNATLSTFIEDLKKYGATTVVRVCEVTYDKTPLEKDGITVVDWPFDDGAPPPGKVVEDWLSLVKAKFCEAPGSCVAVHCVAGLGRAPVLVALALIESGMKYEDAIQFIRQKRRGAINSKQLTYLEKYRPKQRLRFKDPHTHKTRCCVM

Row | SMILES | % Phosphatase Activity (compared to DMSO) PRL-3 (recombinant PRL-3; [2]) | % Phosphatase Activity (compared to DMSO) PRL-2 (recombinant PRL-2; [2]) | % Phosphatase Activity (compared to DMSO) PRL-1 (recombinant PRL-1; [2]) | other results
1 | Cc1ccc(C(=O)C(C)CN2CCCCC2)cc1.Cl (stereo not drawn) [Tolperisone HCl] |  |  |  | % Phosphatase Activity (compared to DMSO) PRL-3 (recombinant PRL-3; [1]): 71%; % Phosphatase Activity (compared to DMSO) PRL-2 (recombinant PRL-2; [1]): 108%; % Phosphatase Activity (compared to DMSO) PRL-1 (recombinant PRL-1; [1]): 91%
2 | C[C@H]1O[C@@H](n2cc(F)c(=O)[nH]c2=O)[C@H](O)[C@@H]1O [Doxifluridine] | 98% | 103% | 91% | 
3 | C[C@]12CCC(=O)C=C1CC[C@@H]1[C@@H]2[C@@H](O)C[C@@]2(C)[C@H]1CC[C@]2(O)C(=O)CO [Hydrocortisone] | 79% | 91% | 102% | 
4 | CN(C)c1ccc2nc3ccc(=[N+](C)C)cc-3sc2c1 [Methylene Blue] | 45% | 72% | 55% | 
5 | O=C(NC[C@H](O)CO)c1ccncc1Nc1ccc(I)cc1F [Pimasertib (AS-703026)] | 84% | 92% | 99% | 
6 | NCCCC[C@H](N[C@@H](CCc1ccccc1)C(=O)O)C(=O)N1CCC[C@H]1C(=O)O [Lisinopril] | 93% | 86% | 100% | 
7 | CCCCCCCC(=O)N[C@H](CN1CCCC1)[C@H](O)c1ccc2c(c1)OCCO2.O=C(O)C(O)C(O)C(=O)O [Eliglustat Tartrate] | 96% | 91% | 96% | 
8 | COc1cc(C)c(/C=C/C(C)=C/C=C/C(C)=C/C(=O)O)c(C)c1C [Acitretin] | 62% | 87% | 83% | 
9 | Cn1cnc2c(F)c(Nc3ccc(Br)cc3F)c(C(=O)NOCCO)cc21 [MEK162 (ARRY-162, ARRY-438162)] | 91% | 72% | 85% | 
10 | Nc1[nH]c(=O)ncc1F [Flucytosine] | 74% | 92% | 99% | 
11 | CC(C)C[C@H](NC(=O)[C@@H](NC(=O)c1cccc(-c2ccccc2)n1)[C@@H](C)O)B(O)O [CEP-18770 (Delanzomib)] | 82% | 98% | 103% | 
12 | Oc1ccc(/C=C/c2cc(O)cc(O)c2)cc1 [Resveratrol] | 84% | 112% | 107% | 
13 | Nc1ccc(/N=N/c2ccccc2)c(N)n1 [Phenazopyridine HCl] | 55% | 61% | 64% | 
14 | O=c1c(-n2ccnn2)c[nH]n1-c1cc(N2CCOCC2)ncn1 [Molidustat (BAY 85-3934)] | 84% | 74% | 90% | 
15 | CC1(C)[C@@H](OC(=O)CCC(=O)O)CC[C@]2(C)[C@H]3C(=O)C=C4[C@@H]5C[C@@](C)(C(=O)O)CC[C@]5(C)CC[C@@]4(C)[C@]3(C)CC[C@@H]12 [Carbenoxolone Sodium] | 84% | 73% | 85% | 
16 | Cc1nc(C)c(Cl)c(O)c1Cl [Clopidol] | 80% | 109% | 112% | 
17 | CNS(=O)(=O)Cc1ccc2[nH]cc(CCN(C)C)c2c1 [Sumatriptan Succinate] |  |  |  | % Phosphatase Activity (compared to DMSO) PRL-3 (recombinant PRL-3; [1]): 80%; % Phosphatase Activity (compared to DMSO) PRL-2 (recombinant PRL-2; [1]): 84%; % Phosphatase Activity (compared to DMSO) PRL-1 (recombinant PRL-1; [1]): 99%
18 | NCCCCCC(=O)O [(6-)ε-Aminocaproic acid] | 75% | 115% | 110% | 
19 | NS(=O)(=O)c1cc2c(cc1Cl)NC(C(Cl)Cl)NS2(=O)=O (stereo not drawn) [Trichlormethiazide] |  |  |  | % Phosphatase Activity (compared to DMSO) PRL-3 (recombinant PRL-3; [1]): 75%; % Phosphatase Activity (compared to DMSO) PRL-2 (recombinant PRL-2; [1]): 93%; % Phosphatase Activity (compared to DMSO) PRL-1 (recombinant PRL-1; [1]): 100%
20 | CC(CN1c2ccccc2Sc2ccccc21)N(C)C.Cl (stereo not drawn) [Promethazine HCl] | 77% | 106% | 99% | 
21 | Nc1nc(F)nc2c1ncn2[C@@H]1O[C@H](CO)[C@@H](O)[C@@H]1O [Fludarabine] | 94% | 119% | 110% | 

Row | SMILES | % Phosphatase Activity (compared to DMSO) PRL-3 (recombinant PRL-3; [2]) | % Phosphatase Activity (compared to DMSO) PRL-2 (recombinant PRL-2; [2]) | % Phosphatase Activity (compared to DMSO) PRL-1 (recombinant PRL-1; [2]) | other results
22 | CCc1cccc2c3c([nH]c12)C(CC)(CC(=O)O)OCC3 (stereo not drawn) [Etodolac] | 72% | 104% | 96% | 
23 | CC(C)(S)[C@@H](N)C(=O)O [Penicillamine] | 97% | 100% | 85% | 
24 | NC(=O)N1c2ccccc2C=Cc2ccccc21 [Carbamazepine] | 80% | 112% | 98% | 
25 | C#CCN[C@@H]1CCc2ccccc21 [Rasagiline Mesylate] |  |  |  | % Phosphatase Activity (compared to DMSO) PRL-3 (recombinant PRL-3): 99%; % Phosphatase Activity (compared to DMSO) PRL-2 (recombinant PRL-2): 130%; % Phosphatase Activity (compared to DMSO) PRL-1 (recombinant PRL-1): 116%
26 | CNNCc1ccc(C(=O)NC(C)C)cc1 [Procarbazine HCl] | 87% | 90% | 103% | 
27 | NC1=NCC2c3ccccc3Cc3ccccc3N12 (stereo not drawn) [Epinastine HCl] |  |  |  | % Phosphatase Activity (compared to DMSO) PRL-3 (recombinant PRL-3): 80%; % Phosphatase Activity (compared to DMSO) PRL-2 (recombinant PRL-2): 109%; % Phosphatase Activity (compared to DMSO) PRL-1 (recombinant PRL-1): 96%
28 | C[n+]1ccccc1/C=N/O.[Cl-] [Pralidoxime (chloride)] | 105% | 91% | 99% | 
29 | CCCCCCCN(CC)CCCC(O)c1ccc(NS(C)(=O)=O)cc1.CCCCCCCN(CC)CCCC(O)c1ccc(NS(C)(=O)=O)cc1.O=C(O)/C=C/C(=O)O (stereo not drawn) [Ibutilide Fumarate] | 88% | 128% | 100% | 
30 | Nc1ccccc1NC(=O)c1ccc(CNC(=O)OCc2cccnc2)cc1 [Entinostat (MS-275)] | 80% | 91% | 91% | 
31 | C[C@H](O)C(=O)Nc1c(I)c(C(=O)NC(CO)CO)c(I)c(C(=O)NC(CO)CO)c1I [Iopamidol] | 90% | 98% | 96% | 
32 | CCC(=O)NCC[C@@H]1CCc2ccc3c(c21)CCO3 [Ramelteon] | 73% | 96% | 91% | 
33 | COC(=O)Nc1nc2ccc([S+]([O-])c3ccccc3)cc2[nH]1 (stereo not drawn) [Oxfendazole] | 92% | 102% | 84% | 
34 | Cc1nc(NC(=O)N2CCC[C@H]2C(N)=O)sc1-c1ccnc(C(C)(C)C(F)(F)F)c1 [BYL719] | 90% | 96% | 89% | 
35 | CC1=CC(=O)c2ccccc2C1=O [Menadione] | 62% | 75% | 62% | 
36 | Cc1ccc(=O)n(-c2ccccc2)c1 [Pirfenidone] | 97% | 137% | 114% | 
37 | CC[C@H](NC(=O)[C@H](C)NC)C(=O)N1C[C@@H](O)C[C@H]1Cc1c(-c2[nH]c3cc(F)ccc3c2C[C@@H]2C[C@H](O)CN2C(=O)[C@H](CC)NC(=O)[C@H](C)NC)[nH]c2cc(F)ccc12 [Birinapant] | 138% | 129% | 138% | 
38 | O=C(O)CCCC[C@@H]1SC[C@@H]2NC(=O)N[C@@H]21 [Biotin (Vitamin B7)] | 86% | 101% | 104% | 
39 | CCN(CCO)CCCC(C)Nc1ccnc2cc(Cl)ccc12 (stereo not drawn) [Hydroxychloroquine Sulfate] | 100% | 100% | 96% | 
40 | CC(S)C(=O)NCC(=O)O (stereo not drawn) [Tiopronin] |  |  |  | % Phosphatase Activity (compared to DMSO) PRL-3 (recombinant PRL-3; [1]): 98%; % Phosphatase Activity (compared to DMSO) PRL-2 (recombinant PRL-2; [1]): 119%; % Phosphatase Activity (compared to DMSO) PRL-1 (recombinant PRL-1; [1]): 90%
41 | CC1(C)S[C@@H]2[C@H](NC(=O)[C@H](NC(=O)N3CCN(S(C)(=O)=O)C3=O)c3ccccc3)C(=O)N2[C@H]1C(=O)O [Mezlocillin Sodium] | 67% | 91% | 92% | 
